What is called IC50 is the concentration needed to halve the response being measured.

Experiment [1] addresses T1, PAO in bovine plasma (Bos taurus, UniProt Q29437).
T1 construct: crude bovine plasma can be used as enzyme source in this assay instead of the purified enzyme; tissue Coesfelder Fleischhandelsgesellschaft, Bernd Grewe (Coesfeld, Germany); host or cells: heparinised bovine blood plasma
T1 sequence (Q29437 17-762): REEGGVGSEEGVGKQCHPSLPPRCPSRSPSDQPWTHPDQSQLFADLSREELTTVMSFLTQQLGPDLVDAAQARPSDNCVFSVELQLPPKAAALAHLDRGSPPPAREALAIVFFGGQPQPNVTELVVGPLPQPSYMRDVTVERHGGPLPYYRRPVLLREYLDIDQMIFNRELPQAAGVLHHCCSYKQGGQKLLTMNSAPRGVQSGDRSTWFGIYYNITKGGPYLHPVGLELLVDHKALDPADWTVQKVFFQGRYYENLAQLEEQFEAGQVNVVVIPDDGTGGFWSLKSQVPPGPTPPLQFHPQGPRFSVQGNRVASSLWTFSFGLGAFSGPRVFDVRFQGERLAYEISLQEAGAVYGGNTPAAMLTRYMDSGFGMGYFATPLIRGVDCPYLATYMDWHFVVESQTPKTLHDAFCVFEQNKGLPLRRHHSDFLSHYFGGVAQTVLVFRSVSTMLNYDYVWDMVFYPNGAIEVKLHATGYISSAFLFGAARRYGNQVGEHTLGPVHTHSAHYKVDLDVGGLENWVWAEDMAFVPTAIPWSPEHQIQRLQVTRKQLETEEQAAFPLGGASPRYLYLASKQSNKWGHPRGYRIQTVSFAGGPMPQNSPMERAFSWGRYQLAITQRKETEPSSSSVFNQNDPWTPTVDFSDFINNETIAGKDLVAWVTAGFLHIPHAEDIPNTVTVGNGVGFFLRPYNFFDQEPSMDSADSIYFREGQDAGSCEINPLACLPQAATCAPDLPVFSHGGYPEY
As to the kind of experiment: Inhibitor screening without pre-incubation of bovine plasma with the inhibitor (HPLC-UV). As to conditions: n = 3. Type of experiment: biochemical. The procedure: Determination of the IC50-values of the PAO inhibitor 2-(4-phenylphenyl)acetohydrazide (16) with bovine plasma using different substrates.
General procedure for inhibitor screening without pre-incubation of bovine plasma with the inhibitor. A mixture of a DMSO solution of 4 (10 mM) (2.5 µL), a DMSO solution of the appropriate inhibitor (concentration variable) (2.5 µL) and PBS buffer (pH 7.4) (89 µL) was treated with bovine plasma (6 µL). After incubation at 37 °C for 45 min, the enzyme reaction was terminated by the addition of acetonitrile (100 µL). The sample was cooled in an ice bath for 10 min and centrifuged at 12,000 × g and 10 °C for 5 min. An aliquot of the supernatant (150 µL) was diluted with aqueous TRIS buffer (100 mM, pH 8.5 at 20 °C) (150 µL), allowed to stand at room temperature for 30 min, and analysed by HPLC. The HPLC–UV-system consisted of a Thermo Scientific Dionex UltiMate 3000 system including an autosampler and a variable wavelength detector (ThermoFisher Scientific, Germering, Germany). Separation was achieved on a Luna 3 u C8(2) analytical column (3 mm inside diameter× 150 mm, particle size 3 µm) (Phenomenex, Aschaffenburg, Germany) protected with a Phenomenex Phenyl guard column (3 mm inside diameter ×4 mm). The injection volume was 50 µL. Temperature of the autosampler was set to 10 °C, the temperature of the column oven was 20 °C. HPLC analysis was run isocratically using acetonitrile/aqueous TRIS buffer (50 mM, pH 8.5 at 20 °C) (35:65, v/v) as eluent at a flow rate of 0.4 mL/min. […] Controls with DMSO (2.5 µL) instead of a DMSO solution of the inhibitor (2.5 µL) were prepared in the same manner in parallel (n = 3). Furthermore, a blank incubation, in which the enzyme solution was replaced by the buffer used for dissolving the enzyme, was carried out. The relative inhibition values were determined at different inhibitor concentrations and calculated as the ratio of the areas of the 1,3-oxazolidine 15 peaks formed in presence and absence of the test compounds (corrected by the blank value). […] The experiments using benzylamine (7) as substrate were carried out in the same way with the modifications that aliquots (150 µL) of the supernatants obtained after addition of acetonitrile and centrifugation were diluted with water (150 µL) and acetonitrile/aqueous ammonium acetate solution (10 mM, pH 6) (45:55, v/v) was used as eluent at a detection wavelength of 250 nm.

Experiment [2] addresses T2, purified bovine PAO (Bos taurus, UniProt Q29437).
T2 construct: bovine PAO purified from bovine plasma; purchased Abnova, Taipei, Taiwan delivered via Biozol, Eching, Germany; host or cells: bovine plasma
T2 sequence (Q29437 17-762): T1 sequence (Q29437 17-762)
Set-up: method as in PMID 27129976. As to conditions: without pre-incubation, n = 3, cited from earlier work.

Experiment [3] addresses T2, purified bovine PAO. As to the kind of experiment: Inhibition of purified bovine PAO without pre-incubation (HPLC-UV). The experiment is classed as biochemical. Particulars: substrate 3-(5-phenyl-2H-tetrazol-2-yl)propan-1-amine (1), n = 3. As for the experimental part: Determination of the IC50-values of the PAO inhibitor 2-(4-phenylphenyl)acetohydrazide (16) with bovine plasma using different substrates. The IC50-values were measured as described previously (without pre-incubation),[33] with the modification that the solution of the isolated PAO in PBS (0.19 mg/mL) (95 µL) was replaced by PBS (89 µL) and bovine plasma (6 µL).
To evaluate the comparability of inhibition data obtained with the purified enzyme and the crude plasma, we measured the inhibition values of the known PAO inhibitor 2-(4-phenylphenyl)acetohydrazide (16) (for formula see Table 3) using the different amine substrates 1–7. In these experiments, the enzyme was added to a solution containing both substrate and inhibitor. Thus, no pre-incubation of enzyme with the inhibitor took place. […] This may be due to the binding of the inhibitor to plasma proteins leading to a somewhat reduced effective concentration. In addition, consistent differences in the apparent inhibitory potency of the inhibitor 16 in dependence of the substrate applied could be registered for both enzyme preparations. The reason for these fluctuating values lies in strongly different binding affinities of the substrates to the enzyme as discussed recently. […]

Where two headings read alike, the source gives them in different places.

Take `NNC(=O)Cc1ccc(-c2ccccc2)cc1` [Compound 16, 2-(4-phenylphenyl)acetohydrazide]: the IC50 was 5.3 ± 0.49 µM in experiment [1] (substrate 4-(5-phenyl-2H-tetrazol-2-yl)butan-1-amine (2), without pre-incubation); 9.7 ± 0.78 µM in experiment [1] (substrate 5-(5-phenyl-2H-tetrazol-2-yl)pentan-1-amine (3), without pre-incubation); 16 ± 3.4 µM in experiment [1] (substrate 8-(5-phenyl-2H-tetrazol-2-yl)octan-1-amine (6), without pre-incubation); 0.29 ± 0.07 µM in experiment [1] (substrate benzylamine (7), without pre-incubation of enzyme and inhibitor); 17 ± 0.8 µM in experiment [1] (substrate hexan-1-amine 4, without pre-incubation of enzyme and inhibitor); 2.5 ± 0.3 µM in experiment [2] (substrate 4-(5-phenyl-2H-tetrazol-2-yl)butan-1-amine (2)). The concentration for half-maximal inhibition (IC50) in experiment [2] (substrate 5-(5-phenyl-2H-tetrazol-2-yl)pentan-1-amine (3)) is 5.4 ± 0.09 µM; in experiment [2] (substrate 6-(5-phenyl-2H-tetrazol-2-yl)hexan-1-amine (4)) it was 11 ± 1.2 µM; in experiment [2] (substrate 8-(5-phenyl-2H-tetrazol-2-yl)octan-1-amine (6)), 11 ± 0.85 µM; in experiment [2] (substrate benzylamine (7)), 0.12 ± 0.03 µM; in experiment [3] it was 53 ± 3 µM.

The values are drawn from publication PMC6237158, “HPLC–UV assay for the evaluation of inhibitors of plasma amine oxidase using crude bovine plasma” (Journal of Enzyme Inhibition and Medicinal Chemistry, 2018).
